≈ marks a conversion by molar mass, not a printed value. Where two headings read alike, the source gives them in different places.
System: N. gonorrhoeae clinical isolates
Test: MIC, agar dilution (CLSI)
Assay type: cell-based, Neisseria gonorrhoeae
Conditions: for MIC: read-out: MIC

`C=CC1=C(C(=O)O)N2C(=O)[C@@H](NC(=O)/C(=N\OCC(=O)O)c3csc(N)n3)[C@H]2SC1` [Cfx, cefixime] gave an MIC range (96 clinical isolates) of 0.016 to 4 µg/mL, an MIC (Neisseria gonorrhoeae, strain CDC1 (GCREF2012 016)) of 0.125 µg/mL (≈ 0.276 µM) and an MIC (Neisseria gonorrhoeae, strain CDC2 (GCREF2012 045)) of 0.125 µg/mL (≈ 0.276 µM). It also gave an MIC (Neisseria gonorrhoeae, strain CDC3 (GCREF2013 013)) of 0.125 µg/mL (≈ 0.276 µM), an MIC (Neisseria gonorrhoeae, strain CDC4 (GCREF2013 030)) of 0.125 µg/mL (≈ 0.276 µM) and an MIC (Neisseria gonorrhoeae, strain CDC5 (GCREF2012 001)) of 0.125 µg/mL (≈ 0.276 µM). For the same compound, the MIC (Neisseria gonorrhoeae, strain CDC6 (GCREF2012 002)) was 0.25 µg/mL (≈ 0.551 µM), the MIC (Neisseria gonorrhoeae, strain CDC8 (GCREF2012 004)) was 0.125 µg/mL (≈ 0.276 µM) and the MIC (Neisseria gonorrhoeae, strain CDC9 (GCREF2012 005)) was 0.125 µg/mL (≈ 0.276 µM). For the same compound, the MIC (Neisseria gonorrhoeae, strain CDC10 (GCREF2012 006)) was 0.125 µg/mL (≈ 0.276 µM), the MIC (Neisseria gonorrhoeae, strain CDC11 (GCREF2012 007)) was 0.125 µg/mL (≈ 0.276 µM) and the MIC (Neisseria gonorrhoeae, strain CDC12 (GCREF2012 008)) was 0.25 µg/mL (≈ 0.551 µM). The MIC (Neisseria gonorrhoeae, strain CDC13 (GCREF2012 009)) was 0.063 µg/mL (≈ 0.139 µM), the MIC (Neisseria gonorrhoeae, strain CDC14 (GCREF2012 010)) was 0.25 µg/mL (≈ 0.551 µM) and the MIC (Neisseria gonorrhoeae, strain CDC15 (GCREF2012 011)) was 0.031 µg/mL (≈ 0.0684 µM). For the same compound, the MIC (Neisseria gonorrhoeae, strain CDC16 (GCREF2012 012)) was 4 µg/mL (≈ 8.82 µM), the MIC (Neisseria gonorrhoeae, strain CDC18 (GCREF2012 014)) was 0.063 µg/mL (≈ 0.139 µM) and the MIC (Neisseria gonorrhoeae, strain CDC19 (GCREF2012 015)) was 0.125 µg/mL (≈ 0.276 µM). The MIC (Neisseria gonorrhoeae, strain CDC20 (GCREF2012 017)) was 0.125 µg/mL (≈ 0.276 µM), the MIC (Neisseria gonorrhoeae, strain CDC21 (GCREF2012 018)) was 0.25 µg/mL (≈ 0.551 µM) and the MIC (Neisseria gonorrhoeae, strain CDC22 (GCREF2012 019)) was 0.031 µg/mL (≈ 0.0684 µM). For the same compound, the MIC (Neisseria gonorrhoeae, strain CDC23 (GCREF2012 020)) was 0.125 µg/mL (≈ 0.276 µM), the MIC (Neisseria gonorrhoeae, strain CDC24 (GCREF2012 021)) was 0.063 µg/mL (≈ 0.139 µM) and the MIC (Neisseria gonorrhoeae, strain CDC25 (GCREF2012 022)) was 0.25 µg/mL (≈ 0.551 µM). It also gave an MIC (Neisseria gonorrhoeae, strain CDC26 (GCREF2012 023)) of 0.063 µg/mL (≈ 0.139 µM), an MIC (Neisseria gonorrhoeae, strain CDC27 (GCREF2012 024)) of 0.063 µg/mL (≈ 0.139 µM) and an MIC (Neisseria gonorrhoeae, strain CDC28 (GCREF2012 025)) of 0.25 µg/mL (≈ 0.551 µM). It also gave an MIC (Neisseria gonorrhoeae, strain CDC29 (GCREF2012 026)) of 0.125 µg/mL (≈ 0.276 µM), an MIC (Neisseria gonorrhoeae, strain CDC30 (GCREF2012 027)) of 0.125 µg/mL (≈ 0.276 µM) and an MIC (Neisseria gonorrhoeae, strain CDC31 (GCREF2012 028)) of 0.25 µg/mL (≈ 0.551 µM). The MIC (Neisseria gonorrhoeae, strain CDC32 (GCREF2012 029)) was 0.125 µg/mL (≈ 0.276 µM), the MIC (Neisseria gonorrhoeae, strain CDC33 (GCREF2012 030)) was 0.5 µg/mL (≈ 1.1 µM) and the MIC (Neisseria gonorrhoeae, strain CDC34 (GCREF2012 031)) was 0.063 µg/mL (≈ 0.139 µM). It also gave an MIC (Neisseria gonorrhoeae, strain CDC35 (GCREF2012 032)) of 0.25 µg/mL (≈ 0.551 µM), an MIC (Neisseria gonorrhoeae, strain CDC36 (GCREF2012 033)) of 0.063 µg/mL (≈ 0.139 µM) and an MIC (Neisseria gonorrhoeae, strain CDC37 (GCREF2012 034)) of 0.125 µg/mL (≈ 0.276 µM). The MIC (Neisseria gonorrhoeae, strain CDC38 (GCREF2012 035)) was 0.063 µg/mL (≈ 0.139 µM), the MIC (Neisseria gonorrhoeae, strain CDC39 (GCREF2012 036)) was 0.25 µg/mL (≈ 0.551 µM) and the MIC (Neisseria gonorrhoeae, strain CDC40 (GCREF2012 037)) was 0.125 µg/mL (≈ 0.276 µM). It also gave an MIC (Neisseria gonorrhoeae, strain CDC41 (GCREF2012 038)) of 0.25 µg/mL (≈ 0.551 µM), an MIC (Neisseria gonorrhoeae, strain CDC42 (GCREF2012 039)) of 0.25 µg/mL (≈ 0.551 µM) and an MIC (Neisseria gonorrhoeae, strain CDC43 (GCREF2012 040)) of 0.25 µg/mL (≈ 0.551 µM). It also gave an MIC (Neisseria gonorrhoeae, strain CDC45 (GCREF2012 042)) of 0.25 µg/mL (≈ 0.551 µM), an MIC (Neisseria gonorrhoeae, strain CDC46 (GCREF2012 043)) of 0.125 µg/mL (≈ 0.276 µM) and an MIC (Neisseria gonorrhoeae, strain CDC47 (GCREF2012 044)) of 0.125 µg/mL (≈ 0.276 µM). It also gave an MIC (Neisseria gonorrhoeae, strain CDC48 (GCREF2012 046)) of 0.125 µg/mL (≈ 0.276 µM), an MIC (Neisseria gonorrhoeae, strain CDC49 (GCREF2012 047)) of 0.25 µg/mL (≈ 0.551 µM) and an MIC (Neisseria gonorrhoeae, strain CDC50 (GCREF2012 048)) of 0.25 µg/mL (≈ 0.551 µM). The MIC (Neisseria gonorrhoeae, strain CDC51 (GCREF2012 049)) was 0.125 µg/mL (≈ 0.276 µM), the MIC (Neisseria gonorrhoeae, strain CDC52 (GCREF2012 050)) was 0.25 µg/mL (≈ 0.551 µM) and the MIC (Neisseria gonorrhoeae, strain CDC53 (GCREF2012 051)) was 0.25 µg/mL (≈ 0.551 µM). The MIC (Neisseria gonorrhoeae, strain CDC54 (GCREF2012 052)) was 0.25 µg/mL (≈ 0.551 µM), the MIC (Neisseria gonorrhoeae, strain CDC55 (GCREF2013 001)) was 0.125 µg/mL (≈ 0.276 µM) and the MIC (Neisseria gonorrhoeae, strain CDC56 (GCREF2013 002)) was 0.25 µg/mL (≈ 0.551 µM). It also gave an MIC (Neisseria gonorrhoeae, strain CDC57 (GCREF2013 003)) of 0.125 µg/mL (≈ 0.276 µM), an MIC (Neisseria gonorrhoeae, strain CDC58 (GCREF2013 004)) of 0.25 µg/mL (≈ 0.551 µM) and an MIC (Neisseria gonorrhoeae, strain CDC59 (GCREF2013 044)) of 0.25 µg/mL (≈ 0.551 µM). For the same compound, the MIC (Neisseria gonorrhoeae, strain CDC60 (GCREF2013 005)) was 0.125 µg/mL (≈ 0.276 µM), the MIC (Neisseria gonorrhoeae, strain CDC61 (GCREF2013 006)) was 0.125 µg/mL (≈ 0.276 µM) and the MIC (Neisseria gonorrhoeae, strain CDC62 (GCREF2013 007)) was 0.25 µg/mL (≈ 0.551 µM). For the same compound, the MIC (Neisseria gonorrhoeae, strain CDC63 (GCREF2013 008)) was 0.125 µg/mL (≈ 0.276 µM), the MIC (Neisseria gonorrhoeae, strain CDC64 (GCREF2013 009)) was 0.125 µg/mL (≈ 0.276 µM) and the MIC (Neisseria gonorrhoeae, strain CDC65 (GCREF2013 010)) was 0.125 µg/mL (≈ 0.276 µM). It also gave an MIC (Neisseria gonorrhoeae, strain CDC66 (GCREF2013 011)) of 0.125 µg/mL (≈ 0.276 µM), an MIC (Neisseria gonorrhoeae, strain CDC67 (GCREF2013 014)) of 0.125 µg/mL (≈ 0.276 µM) and an MIC (Neisseria gonorrhoeae, strain CDC68 (GCREF2013 016)) of 0.063 µg/mL (≈ 0.139 µM). For the same compound, the MIC (Neisseria gonorrhoeae, strain CDC69 (GCREF2013 017)) was 0.063 µg/mL (≈ 0.139 µM), the MIC (Neisseria gonorrhoeae, strain CDC70 (GCREF2013 018)) was 0.125 µg/mL (≈ 0.276 µM) and the MIC (Neisseria gonorrhoeae, strain CDC71 (GCREF2013 019)) was 0.016 µg/mL (≈ 0.0353 µM). The MIC (Neisseria gonorrhoeae, strain CDC72 (GCREF2013 020)) was 0.25 µg/mL (≈ 0.551 µM), the MIC (Neisseria gonorrhoeae, strain CDC73 (GCREF2013 021)) was 0.125 µg/mL (≈ 0.276 µM) and the MIC (Neisseria gonorrhoeae, strain CDC74 (GCREF2013 022)) was 0.125 µg/mL (≈ 0.276 µM). The MIC (Neisseria gonorrhoeae, strain CDC75 (GCREF2013 023)) was 0.125 µg/mL (≈ 0.276 µM), the MIC (Neisseria gonorrhoeae, strain CDC76 (GCREF2013 024)) was 0.125 µg/mL (≈ 0.276 µM) and the MIC (Neisseria gonorrhoeae, strain CDC77 (GCREF2013 025)) was 0.125 µg/mL (≈ 0.276 µM). The MIC (Neisseria gonorrhoeae, strain CDC78 (GCREF2013 026)) was 0.063 µg/mL (≈ 0.139 µM), the MIC (Neisseria gonorrhoeae, strain CDC79 (GCREF2013 027)) was 0.125 µg/mL (≈ 0.276 µM) and the MIC (Neisseria gonorrhoeae, strain CDC80 (GCREF2013 028)) was 0.125 µg/mL (≈ 0.276 µM). For the same compound, the MIC (Neisseria gonorrhoeae, strain CDC81 (GCREF2013 029)) was 0.25 µg/mL (≈ 0.551 µM), the MIC (Neisseria gonorrhoeae, strain CDC82 (GCREF2013 031)) was 0.125 µg/mL (≈ 0.276 µM) and the MIC (Neisseria gonorrhoeae, strain CDC83 (GCREF2013 032)) was 0.125 µg/mL (≈ 0.276 µM). For the same compound, the MIC (Neisseria gonorrhoeae, strain CDC84 (GCREF2013 033)) was 0.125 µg/mL (≈ 0.276 µM), the MIC (Neisseria gonorrhoeae, strain CDC86 (GCREF2013 035)) was 0.125 µg/mL (≈ 0.276 µM) and the MIC (Neisseria gonorrhoeae, strain CDC87 (GCREF2013 036)) was 0.25 µg/mL (≈ 0.551 µM). For the same compound, the MIC (Neisseria gonorrhoeae, strain CDC88 (GCREF2013 037)) was 0.125 µg/mL (≈ 0.276 µM), the MIC (Neisseria gonorrhoeae, strain CDC89 (GCREF2013 038)) was 0.125 µg/mL (≈ 0.276 µM) and the MIC (Neisseria gonorrhoeae, strain CDC90 (GCREF2013 039)) was 0.125 µg/mL (≈ 0.276 µM). The MIC (Neisseria gonorrhoeae, strain CDC91 (GCREF2013 040)) was 4 µg/mL (≈ 8.82 µM), the MIC (Neisseria gonorrhoeae, strain CDC92 (GCREF2013 041)) was 0.125 µg/mL (≈ 0.276 µM) and the MIC (Neisseria gonorrhoeae, strain CDC93 (GCREF2013 042)) was 0.125 µg/mL (≈ 0.276 µM). For the same compound, the MIC (Neisseria gonorrhoeae, strain CDC94 (GCREF2013 043)) was 0.125 µg/mL (≈ 0.276 µM), the MIC (Neisseria gonorrhoeae, strain CDC95 (GCREF2013 045)) was 0.25 µg/mL (≈ 0.551 µM) and the MIC (Neisseria gonorrhoeae, strain CDC96 (GCREF2013 046)) was 0.125 µg/mL (≈ 0.276 µM). For the same compound, the MIC (Neisseria gonorrhoeae, strain CDC97 (GCREF2013 047)) was 0.125 µg/mL (≈ 0.276 µM), the MIC (Neisseria gonorrhoeae, strain CDC98 (GCREF2013 048)) was 0.125 µg/mL (≈ 0.276 µM) and the MIC (Neisseria gonorrhoeae, strain CDC99 (GCREF2013 012)) was 0.125 µg/mL (≈ 0.276 µM). It also gave an MIC (Neisseria gonorrhoeae, strain CDC100 (GCREF2013 015)) of 0.25 µg/mL (≈ 0.551 µM), an MIC50 (Neisseria gonorrhoeae, 96 clinical isolates, read-out: MIC50) of 0.125 µg/mL (≈ 0.276 µM) and an MIC90 (Neisseria gonorrhoeae, 96 clinical isolates, read-out: MIC90) of 0.25 µg/mL (≈ 0.551 µM).

Source: PMC9487510, “A Novel Oral GyrB/ParE Dual Binding Inhibitor Effective against Multidrug-Resistant Neisseria gonorrhoeae and Other High-Threat Pathogens” (Antimicrobial Agents and Chemotherapy, 2022)
